Measured values: US4199598A, “Method of treating noradrenaline dysfunction or for dopamine-β-hydroxylase inhibition” (Richter Gedeon Vegyeszeti Gyar Rt., priority 1976, dated 1980)

What was measured:
dopamine-β-hydroxylase [1] = assay: Noradrenaline content of spleen (dopamine-β-hydroxylase inhibiting effect); assay type: in vivo, male Wister rats; settings: rats, i.p., 4 hours; for response vs control in vivo at 100 mg/kg / response vs control in vivo at 200 mg/kg: Rattus norvegicus, ip, ± Standard Error, read-out: Amine level, spleen NA (noradrenaline)
Experimental: (§1) The dopamine-β-hydroxylase inhibiting effects of the compounds according to the invention were examined by the following tests:
(§2) The tests were performed on male Wister rats weighing 150 to 200 g. The dopamine-β-hydroxylase inhibiting effects of the compounds were evaluated by determining the change of noradrenaline, dopamine and adrenaline levels of the cerebrum, heart, spleen and adrenal gland. The serotonine and 5-hydroxy-indolyl-acetic acid levels of the cerebrum were also determined. The measurements were performed as follows:
(§3) The animals were decapitated, the cerebrum, heart, spleen and adrenal gland were removed quickly, and the organs were frozen by placing them onto a metal sheet cooled with dry ice. The frozen organs were stored for a maximum of one night at -20° C.
(§4) Determination of the noradrenaline content of heart and spleen
(§5) The organs were weighed in frozen state and then homogenized in 5.0 ml of 0.4 N perchloric acid containing 0.05% of EDTA-Na2 and 0.1% of Na2 S2 O5. The homogenized mixtures were centrifuged as described above for the treatment of adrenal gland, the supernatants were decanted, and the pH was adjusted to 8.0±0.1 with a 0.1 molar tris buffer containing 20 g/l of NaOH and 25 g/l of EDTA-Na2. 100 mg of prepared Al2 O3 (Anton et al: J. Pharm. Ther., Vol. 138, p. 360, 1962) were added to the samples, and the mixtures were shaken mechanically for 20 minutes. Thereafter the Al2 O3 were washed with 2.10 ml of distilled water, and the noradrenaline was eluted with 1.0 ml of 0.05 N perchloric acid. 0.5 ml samples of the eluate were applied for the determination of noradrenaline.
(§6) Noradrenaline was determined according to the method of Shellenberger et al (Anal. Biochem., Vol. 39, p. 356, 1971), with the following modifications of the basic procedure: 0.5 ml of 0.1 molar Na-K-phosphate buffer, containing 9 g/l of EDTA-Na2, were added to 0.5 ml of the eluate, and the catecholamines (noradrenaline in the examination of heart and spleen and noradrenaline and dopamine in the examination of the cerebrum) were oxidized with 0.1 ml of a 0.1 N iodine solution in 5% potassium iodide. […] Thereafter the samples were placed for 5 minutes in a drying oven heated to 100° C., and then the samples were cooled with ice water. The fluorescence of noradrenaline was measured with an OPTON spectrophotometer at wavelengths of 390 nm (excitation) and 490 nm (emission).
(§7) In the tests disulfiram, 2,2-dipyridyl, bis(1-methyl-4-homopiperazinyl-thiocarbonyl)-disulfide, sodium diethyldithiocarbamate and N-phenyl-N'-(2-thiazolyl)-thiourea were used as reference substances. The values indicated in Table 1 are percentages in relation to the amine levels of the controls measured in the same tests (± Standard Error). The statistical calculations were performed on a TPA/i type computer, using Student's test.

dopamine-β-hydroxylase [2] = assay: Noradrenaline content of heart (dopamine-β-hydroxylase inhibiting effect); assay type: in vivo, male Wister rats; settings: rats, i.p., 4 hours; for response vs control in vivo at 100 mg/kg / response vs control in vivo at 200 mg/kg: Rattus norvegicus, ip, ± Standard Error, read-out: Amine level, heart NA (noradrenaline)
Experimental: as §1, §2, §3, §4, §5, §6, §7

dopamine-β-hydroxylase [3] = settings: in vitro, in words, prior art; cited from earlier work
dopamine-β-hydroxylase [4] = assay: Noradrenaline, dopamine, serotonine and 5-hydroxy-indolylacetic acid contents of cerebrum (dopamine-β-hydroxylase inhibiting effect); assay type: in vivo, male Wister rats; settings: rats, i.p., 4 hours; for response vs control in vivo at 100 mg/kg / response vs control in vivo at 200 mg/kg: Rattus norvegicus, ip, ± Standard Error
Experimental: as §1, §2, §3, §6
Determination of the noradrenaline, dopamine, serotonine and 5-hydroxy-indolylacetic acid contents of cerebrum
The brains were homogenized in 10 parts by volume of 0.4 N perchloric acid. The homogenized mixture was stored at -20° C. overnight; thereafter it was thawed and centrifuged as described above. A sample of homogenized mixture corresponding to 0.5 g of brain was removed, the pH of the sample was adjusted to 8.0±0.1 with 0.1 molar tris-buffer of the above composition, and the sample was processed as described above for the determination of the noradrenaline content of heart and spleen, with the difference that 1.5 ml of 0.05 N perchloric acid were applied as eluting agent. 0.5 ml of the eluate were applied to determine the noradrenaline and dopamine content. The measurement was performed as described above, with the difference that samples of 0.5 ml were applied for the recording of the fluorescence of noradrenaline. The residue was placed for 50 minutes into a drying oven heated to 100° C.; thereafter the sample was cooled with ice water, and the fluorescence of dopamine was recorded at wavelengths of 325 nm (excitation) and 380 nm (emission).
In a further test series the serotonine and 5-hydroxy-indolylacetic acid contents were also determined, in addition to the determination of the noradrenaline and dopamine contents, from the same sample. In this instance the brains were homogenized in 10 ml of 75% ethanol, 0.2 ml of EDTA-Na2 and 5% of ascorbic acid were added to the homogenized mixtures, and the homogenized mixtures were maintained at -20° C. overnight. The mixtures were then centrifuged as described above, and 5.0 ml samples of the supernatant were removed. The samples were diluted with equal volumes of distilled water, and poured onto ion-exchange columns of 0.5×1.5 cm dimensions, filled with buffered Amberlite CG-30 (200 to 400 mesh). The columns were washed with 5 ml of distilled water followed with 1.0 ml of 0.2 N hydrochloric acid, and the first effluent and the aqueous wash were collected for the determination of 5-hydroxy-indolylacetic acid. Elution was continued with further 1.2 ml of 0.2 N hydrochloric acid in order to remove noradrenaline, dopamine and serotonine. Samples of 0.3 ml were used for the determinations. […]

Toxicity (LD50), rats = settings: rat, in vivo, ip
dopamine-β-hydroxylase [5] = assay: Adrenaline content of adrenal gland (dopamine-β-hydroxylase inhibiting effect); assay type: in vivo, male Wister rats; settings: rats, i.p., 4 hours; for response vs control in vivo at 100 mg/kg / response vs control in vivo at 200 mg/kg: Rattus norvegicus, ip, ± Standard Error, read-out: Amine level, adrenal gland AD (adrenaline)
Experimental: as §1, §2, §3
Determination of the adrenaline content of adrenal gland
The adrenal glands were freed from fat and homogenized in 3.0 ml of ice-cold 0.4 N perchloric acid. The homogenized mixtures were centrifuged for 10 minutes at 0° C. with a speed of 3200 r.p.m. on a Janetzky K-70 type centrifuge. 0.05 ml samples were taken from the supernatant, and the adrenaline level was determined directly by the method of Laverty et al (Anal. Biochem., Vol. 22, p. 269, 1968).
as §7

in vivo = settings: mouse, ip
dopamine-β-hydroxylase [6] = settings: in words, prior art; cited from earlier work
[7] = read-out: Amine level, cerebrum DA (dopamine)
[8] = read-out: Amine level, cerebrum NA (noradrenaline)
[9] = read-out: Amine level, cerebrum SE (serotonine)
[10] = read-out: Level, cerebrum 5-HIAA (5-hydroxy-indolylacetic acid)

Row | SMILES | response vs control in vivo at 200 mg/kg (dopamine-β-hydroxylase [1]) | LD50 (in vivo) | response vs control in vivo at 200 mg/kg (dopamine-β-hydroxylase [2]) | response vs control in vivo at 200 mg/kg (dopamine-β-hydroxylase [4]; [7]) | response vs control in vivo at 200 mg/kg (dopamine-β-hydroxylase [4]; [8]) | response vs control in vivo at 200 mg/kg (dopamine-β-hydroxylase [4]; [9]) | response vs control in vivo at 200 mg/kg (dopamine-β-hydroxylase [4]; [10]) | response vs control in vivo at 200 mg/kg (dopamine-β-hydroxylase [5]) | further results
1 | c1ccc(-c2ccccn2)nc1 [2,2-D, 2,2-dipyridyl, reference compound] | – | – | – | – | – | – | – | – | Amine level, spleen NA (noradrenaline) (dopamine-β-hydroxylase [1]; 37.5 mg/kg): 100 percentages in relation to the controls; Amine level, heart NA (noradrenaline) (dopamine-β-hydroxylase [2]; 37.5 mg/kg): 104 percentages in relation to the controls; Amine level, heart NA (noradrenaline) (dopamine-β-hydroxylase [2]; 75 mg/kg): 58 percentages in relation to the controls; dopamine-β-hydroxylase inhibition in vitro (dopamine-β-hydroxylase [3]): effective under in vitro conditions; Amine level, cerebrum DA (dopamine) (dopamine-β-hydroxylase [4]; 37.5 mg/kg): 116 percentages in relation to the controls; Amine level, cerebrum NA (noradrenaline) (dopamine-β-hydroxylase [4]; 37.5 mg/kg): 79.5 percentages in relation to the controls; Amine level, cerebrum DA (dopamine) (dopamine-β-hydroxylase [4]; 75 mg/kg): 95 percentages in relation to the controls; Amine level, cerebrum NA (noradrenaline) (dopamine-β-hydroxylase [4]; 75 mg/kg): 41.2 percentages in relation to the controls; Amine level, cerebrum SE (serotonine) (dopamine-β-hydroxylase [4]; 75 mg/kg): 100 percentages in relation to the controls; LD50 (Toxicity (LD50), rats): 150 mg/kg; Amine level, adrenal gland AD (adrenaline) (dopamine-β-hydroxylase [5]; 37.5 mg/kg): 80 percentages in relation to the controls; Amine level, adrenal gland AD (adrenaline) (dopamine-β-hydroxylase [5]; 75 mg/kg): 63 percentages in relation to the controls
2 | OCCNC1=C(C(=S)S)CCC1 [Compound M-4, 2-(N-hydroxyethyl)-amino-cyclopent-1-ene-dithiocarboxylic acid] | 98.4 ± 17.1% | ~800 mg/kg | 75.4 ± 8.3% | 126 ± 2.5% | 41.6 ± 2% | 122 ± 10.5% | 132 ± 12.6% | 93.4 ± 7.5% | response vs control in vivo at 100 mg/kg (dopamine-β-hydroxylase [1]): 81.4 ± 9.4%; response vs control in vivo at 100 mg/kg (dopamine-β-hydroxylase [2]): 85 ± 9.7%; response vs control in vivo at 100 mg/kg (dopamine-β-hydroxylase [4]; [7]): 110 ± 3.5%; response vs control in vivo at 100 mg/kg (dopamine-β-hydroxylase [4]; [8]): 65.4 ± 4.9%; response vs control in vivo at 100 mg/kg (dopamine-β-hydroxylase [4]; [9]): 110 ± 3.3%; response vs control in vivo at 100 mg/kg (dopamine-β-hydroxylase [5]): 82.7 ± 4.2%
3 | NC(CCCNC1=C(C(=S)S)CCC1)C(=O)O (centres unmarked) [Compound M-5, 2-[N-(4-carboxy-4-amino)-butyl]-amino-cyclopent-1-ene-dithiocarboxylicacid] | 67.1 ± 6.2% | ~700 mg/kg | 75 ± 10.6% | 102 ± 1.8% | 69.3 ± 2.9% | 114 ± 3.6% | 141 ± 10% | 70.7 ± 3.3% | response vs control in vivo at 100 mg/kg (dopamine-β-hydroxylase [1]): 76.4 ± 11.1%; response vs control in vivo at 100 mg/kg (dopamine-β-hydroxylase [2]): 98.4 ± 5.4%; response vs control in vivo at 100 mg/kg (dopamine-β-hydroxylase [4]; [7]): 100 ± 4.8%; response vs control in vivo at 100 mg/kg (dopamine-β-hydroxylase [4]; [8]): 81.7 ± 4.5%; response vs control in vivo at 100 mg/kg (dopamine-β-hydroxylase [4]; [9]): 110 ± 4.1%; response vs control in vivo at 100 mg/kg (dopamine-β-hydroxylase [5]): 69.4 ± 4%
4 | S=C(S)C1=C(NC2CCCCC2)CCC1 [Compound M-6, 2-(N-cyclohexyl)-amino-cyclopent-1-ene-dithiocarboxylic acid] | 98.1 ± 13.7% | > 1000 mg/kg | 92.7 ± 6.5% | 107 ± 5.6% | 40.7 ± 1.1% | 101 ± 5.1% | 150 ± 8.5% | 94.9 ± 3.4% | –
5 | NC(CCCCNC1=C(C(=S)S)CCC1)C(=O)O (centres unmarked) [Compound M-7, 2-[N-(5-carboxy-5-amino)-pentyl]-amino-cyclopent-1-ene-dithiocarboxylic ac id] | 85.3 ± 17.7% | ~900 mg/kg | 95.6 ± 8.5% | 106 ± 7.2% | 65.8 ± 3% | 99.7 ± 6.8% | 153 ± 13% | 79.5 ± 6.5% | –
6 | S=C(S)C1=C(Nc2ccccc2)CCC1 [Compound M-8, 2-(N-phenyl)-amino-cyclopent-1-ene-dithiocarboxylic acid] | 71.3 ± 12.8% | > 1000 mg/kg | 99.9 ± 2.9% | 97.3 ± 7.1% | 75.6 ± 4.6% | 102 ± 7.9% | 135 ± 10% | 88.4 ± 4.6% | –
7 | CN1CCCN(C(=S)SSC(=S)N2CCCN(C)CC2)CC1 [FLA-63, bis(1-methyl-4-homopiperazinyl)-thiocarbonyl-disulfide] | – | – | – | – | – | – | – | – | dopamine-β-hydroxylase inhibition in vivo (dopamine-β-hydroxylase [6]): one of the most potent dopamine-β-hydroxylase inhibitors in vivo
